Literature values, collected in patent US9029427B2, “Controlled release solid preparation” (Asahi Kasei Chemicals Corporation, priority 2005, dated 2015).

Conditions: water

## CCOc1ccccc1C(N)=O [Ethenzamide]
  amount of solvent required for dissolving 1 g of solute: ≥ 10000 cm^3

## O=C([O-])c1ccccc1O.[Na+] [sodium salicylate]
  amount of solvent required for dissolving 1 g of solute: less than 1 cm^3
